Source: patent US20260217701A1, “SELECTIVE BET INHIBITORS AND USES THEREOF” (Tay Therapeutics Limited, priority 2022, published 2026)
“And” between values parts separate entries of the source, which are not always exact repeats. Equal values may be shown once.

Tested on: imiquimod-induced psoriasis
Assay: Imiquimod-induced psoriasis model
Format: in vivo, mice
Parameters: Spleen Weight / Spleen Weight Ratio: unit not given here
Conditions: for PASI Scores / Number Licking / Number Licking + Scratching / Number Scratching / Distance Traveled / Number Rearings / Spleen Weight / Spleen Weight Ratio: individual animals; for Distance Traveled / Number Rearings: behavioral evaluation; for Spleen Weight / Spleen Weight Ratio: mice
How it was run: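 Psoriasis-like dermatitis induced in mice by daily dorsal imiquimod cream (Days 1–14); dosing with Compound A (5% DMSO/40% PEG-400/55% saline vehicle) began Day 8. Read-outs: summed 0–4 scores for erythema, induration and peeling daily to Day 15, plus terminal spleen ratio, behaviour and serum cytokines.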

[1] = IMI-psoriasis model, behavioral evaluation D15, 1 mg/kg
[2] = IMI-psoriasis model, behavioral evaluation D15, 3 mg/kg
[3] = IMI-psoriasis model, behavioral evaluation D15, 10 mg/kg

For `COCCn1cc(-c2ccccc2)c(-c2cn(C)c(=O)c3[nH]c(-c4cnn(C(F)(F)F)c4)cc23)cc1=O` [Compound B, 4-(1-(2-methoxyethyl)-2-oxo-5-phenyl-1,2-dihydropyridin-4-yl)-6-methyl-2-(1-(trifluoromethyl)-1H-pyrazol-4-yl)-1,6-dihydro-7H-pyrrolo[2,3-c]pyridin-7-one], the “PASI Scores” value (IMI + Compound B 1 mg/kg, D13) was 4 (2×) and 5 (3×) and 8 and 7 (2×), the “PASI Scores” value (IMI + Compound B 1 mg/kg, D14) was 4 (2×) and 7 (2×) and 6 (3×) and 5 and the “PASI Scores” value (IMI + Compound B 1 mg/kg, D15) was 5 (3×) and 7 and 4 and 6 (2×) and 3. For the same compound, the “PASI Scores” value (IMI + Compound B 3 mg/kg, D8 (day treatment started)) was 8 and 7 (4×), the “PASI Scores” value (IMI + Compound B 3 mg/kg, D9) was 7 and 8 and 6 (3×) and the “PASI Scores” value (IMI + Compound B 3 mg/kg, D10) was 6 (2×) and 8 and 5 and 4. The “PASI Scores” value (IMI + Compound B 3 mg/kg, D11) was 5 (4×) and 6, the “PASI Scores” value (IMI + Compound B 3 mg/kg, D12) was 4 and 6 (3×) and the “PASI Scores” value (IMI + Compound B 3 mg/kg, D13) was 6 and 4 (3×). For the same compound, the “PASI Scores” value (IMI + Compound B 3 mg/kg, D14) was 6 and 4 and 5 and 3, the “PASI Scores” value (IMI + Compound B 3 mg/kg, D15) was 4 and 5 and 3 and 1 and the “Use Enrichment D1” value (IMI-psoriasis model, D1, 1 mg/kg, per cage (two animals)) was 4.0. For the same compound, the “Use Enrichment D1” value (IMI-psoriasis model, D1, 3 mg/kg, per cage (two animals)) was 4.0, the “Use Enrichment D1” value (IMI-psoriasis model, D1, 10 mg/kg, per cage (two animals)) was 4.0 and the “Use Enrichment D8” value (IMI-psoriasis model, D8, 1 mg/kg, per cage (two animals)) was 1.0 and 1.5. For the same compound, the “Use Enrichment D9” value (IMI-psoriasis model, D9, 1 mg/kg, per cage (two animals)) was 1.5 and 2.0 and 1.0, the “Use Enrichment D10” value (IMI-psoriasis model, D10, 1 mg/kg, per cage (two animals)) was 2.5 and 1.5 and 3.0 and the “Use Enrichment D11” value (IMI-psoriasis model, D11, 1 mg/kg, per cage (two animals)) was 3.0 and 3.5 and 2.5. For the same compound, the “Use Enrichment D11” value (IMI-psoriasis model, D11, 3 mg/kg, per cage (two animals)) was 2.0 and 4.0 and 2.5, the “Use Enrichment D12” value (IMI-psoriasis model, D12, 1 mg/kg, per cage (two animals)) was 1.5 and 1.0 and the “Use Enrichment D13” value (IMI-psoriasis model, D13, 10 mg/kg, per cage (two animals)) was 4.0 and 2.5. For the same compound, the “Use Enrichment D14” value (IMI-psoriasis model, D14, 1 mg/kg, per cage (two animals)) was 2.5 and 2.0 and 1.5, the “Use Enrichment D14” value (IMI-psoriasis model, D14, 3 mg/kg, per cage (two animals)) was 3.0 and 4.0 and 3.5 and 2.5 and the “Use Enrichment D14” value (IMI-psoriasis model, D14, 10 mg/kg, per cage (two animals)) was 4.0. For the same compound, the “Use Enrichment D15” value (IMI-psoriasis model, D15, 3 mg/kg, per cage (two animals)) was 3.5 and 4.0 and 3.0, the “Use Enrichment D15” value (IMI-psoriasis model, D15, 10 mg/kg, per cage (two animals)) was 4.0 and the “Number Licking” value [1] was 3 (4×) and 2 and 7 and 4 and 5. The “Number Licking + Scratching” value [1] was 5 (3×) and 8 and 3 and 4 and 7 and 6, the “Number Scratching” value [1] was 2 (2×) and 5 and 0 (3×) and 1 and 3 and the “Number Licking” value [2] was 8 (2×) and 9 and 3 (4×). The “Number Licking + Scratching” value [2] was 8 and 11 and 4 and 3 (2×) and 5 and 13, the “Number Scratching” value [2] was 0 (3×) and 2 (2×) and 1 and 5 and the “Number Licking” value [3] was 6 and 4 and 2 (4×) and 3. The “Number Licking + Scratching” value [3] was 6 and 5 and 2 (2×) and 3 (3×), the “Number Scratching” value [3] was 0 (4×) and 1 (3×) and the “Distance Traveled” value (IMI-psoriasis model, 1 mg/kg) was 15 m and 7 m and 11 m and 8 m and 9 m and 13 m and 14 m (2×). The “Number Rearings” value (IMI-psoriasis model, 1 mg/kg) was 44 and 23 and 47 and 19 and 29 and 27 and 87 and 49, the “Distance Traveled” value (IMI-psoriasis model, 3 mg/kg) was 17 m and 9 m and 23 m and 12 m and 15 m and 11 m and 13 m and the “Number Rearings” value (IMI-psoriasis model, 3 mg/kg) was 27 and 38 and 121 and 47 and 31 and 60 and 57. For the same compound, the “Distance Traveled” value (IMI-psoriasis model, 10 mg/kg) was 15 m and 14 m and 16 m and 7 m (3×) and 6 m, the “Number Rearings” value (IMI-psoriasis model, 10 mg/kg) was 44 (2×) and 71 and 6 and 11 and 1 and 13 and the “Use Enrichment Mean D1-D8” value (IMI-psoriasis model, mean D1-D8, 1 mg/kg, per cage (two animals)) was 2.50 and 2.75. For the same compound, the “Use Enrichment Mean D1-D8” value (IMI-psoriasis model, mean D1-D8, 3 mg/kg, per cage (two animals)) was 2.50 and 2.75 and 2.25, the “Use Enrichment Mean D1-D8” value (IMI-psoriasis model, mean D1-D8, 10 mg/kg, per cage (two animals)) was 2.50 and 2.75 and 2.00 and 3.00 and the “Use Enrichment Mean D8-D15” value (IMI-psoriasis model, mean D8-D15, 1 mg/kg, per cage (two animals)) was 2.57 and 2.07 and 2.43 and 2.14. For the same compound, the “Use Enrichment Mean D8-D15” value (IMI-psoriasis model, mean D8-D15, 10 mg/kg, per cage (two animals)) was 3.50 and 2.29 and 1.93 and 3.07, the “Spleen Weight” value (IMI-psoriasis model, 1 mg/kg) was 255.35 and 280.52 and 235.85 and 298.12 and 227.47 and 255.31 and 244.77 and 316.12 and the “Spleen Weight Ratio” value (IMI-psoriasis model, 1 mg/kg) was 1562.73 and 1912.20 and 1309.55 and 1793.74 and 1315.62 and 1552.98 and 1518.42 and 1820.97. For the same compound, the “Spleen Weight” value (IMI-psoriasis model, 3 mg/kg) was 244.98 and 212.34 and 270.73 and 183.55 and 232.29 and 224.28 and 206.85 and 220.98, the “Spleen Weight Ratio” value (IMI-psoriasis model, 3 mg/kg) was 1777.79 and 1257.94 and 1699.50 and 1016.90 and 1343.49 and 1313.11 and 1297.68 and 1278.08 and the “Spleen Weight” value (IMI-psoriasis model, 10 mg/kg) was 184.80 and 169.45 and 184.96 and 119.62 and 101.24 and 156.25 and 130.42 and 159.58.
